Measured values from patent EP4768499A1, “MACROCYCLIC PEPTIDE COMPOUND HAVING CELL MEMBRANE PERMEABILITY AND METABOLIC STABILITY, AND LIBRARY CONTAINING SAME” (Chugai Seiyaku Kabushiki Kaisha, priority 2023, dated 2025).
Starred links: 1 amine or outer side, 2 acyl side, 3 side chain; linkers in the order of their positions; H or OH if unused. Positions of bridges follow the written chain, without caps; N, C: chain ends. Non-standard residues stand in square brackets, D forms with d. Residues, ends and D or L forms follow the SMILES beside them. *: point of attachment. NMedβ3hAla = C[C@H](CC(=O)[*:2])N(C)[*:1]; NMeF = CN[C@@H](Cc1ccccc1)C(=O)O; NMeGABA = CN(CCCC(=O)[*:2])[*:1]; NMeI = CC[C@H](C)[C@H](NC)C(=O)O; NMeT = CN[C@H](C(=O)O)[C@@H](C)O; hPhe = N[C@@H](CCc1ccccc1)C(=O)O; NMeβAla = CN(CCC(=O)[*:2])[*:1]; NMeD = CN[C@@H](CC(=O)O)C(=O)O; NMeL = CN[C@@H](CC(C)C)C(=O)O; NMeV = CN[C@H](C(=O)O)C(C)C; NMeAbu = CC[C@H](NC)C(=O)O; NMeA = CN[C@@H](C)C(=O)O; Piperidide = C1CCN(*)CC1; Abu = CC[C@H](N)C(=O)O; NBuGly = CCCCNCC(=O)O; βAla = NCCC(=O)O; Sar = CNCC(=O)O; tBu = CC(C)(C)*

What was measured:
[1] = Metabolic stability test: liver microsomal stability assay; assay type: in vitro ADME, mouse; conditions: mouse liver microsomes 0.5 mg protein/mL, compound 1 µM; for microsomal CLint at 1 µM: male, pH 7.4, presence of NADPH, read-out: Mouse Hepatic Microsome CLh,int NADPH(+); for Mouse Hepatic Microsome CLh,int NADPH(-): absence of NADPH
[2] = Membrane permeability test using Caco-2 cells with preincubation; assay type: in vitro ADME; conditions: Caco-2; preincubation 20 to 24 hours; Apical FaSSIF/HBSS pH 6.0, Basal HBSS 4% BSA pH 7.4; 180 minutes; read-out: Caco2 Papp
Caco-2 cells = experiment: as above; assay type: in vitro ADME; conditions: Caco-2 cells, preincubation 20 to 24 hours; apical FaSSIF/HBSS 1% DMSO pH 6.0, basal HBSS 4% BSA pH 7.4; basal sample at 180 minutes

Compound	microsomal CLint at 1 µM [1] [µL/min/mg]	Mouse Hepatic Microsome CLh,int NADPH(-) [1] [µL/min/mg Protein]	Papp A→B [2] [×10⁻⁶ cm/s]	Caco2 Papp (10^-6 cm/sec) (Caco-2 cells)
CC[C@@H]1NC(=O)[C@H](CC(C)C)N(C)C(=O)[C@H](COC(C)(C)C)NC(=O)[C@H]([C@@H](C)CC)NC(=O)[C@H](Cc2ccccc2)N(C)C(=O)CNC(=O)[C@H]([C@@H](C)CC)NC(=O)[C@H](CC(C)C)N(C)C(=O)CCCN(C)C(=O)C[C@@H](C)N(C)C(=O)[C@H](CC(C)C)NC(=O)[C@H](C)N(C)C(=O)[C@H](Cc2ccccc2)N(C)C(=O)[C@H](C(C)C)NC1=O [pd063] (cyclo([Abu]V[NMeF][NMeA]L[NMedβ3hAla][NMeGABA][NMeL]IG[NMeF]IS(tBu)[NMeL]))	47.5	33.7	0.03	0.03 10^-6 cm/sec
CC[C@@H]1NC(=O)[C@H](C(C)C)NC(=O)[C@H]([C@@H](C)CC)N(C)C(=O)[C@H](CCc2ccccc2)NC(=O)[C@H](Cc2ccccc2)N(C)C(=O)[C@H]([C@@H](C)CC)NC(=O)[C@H](CC(C)C)N(C)C(=O)[C@H](CC(C)C)NC(=O)CCN(C)C(=O)C[C@@H](C)N(C)C(=O)[C@H](CC(C)C)N(C)C(=O)CNC(=O)[C@@H]2CCCN2C(=O)[C@H](CC(C)C)N(C)C1=O [pd064] (cyclo([Abu][NMeL]PG[NMeL][NMedβ3hAla][NMeβAla]L[NMeL]I[NMeF][hPhe][NMeI]V))	41.4	43.3	0.04	0.04 10^-6 cm/sec
CC[C@@H]1NC(=O)[C@H](CC(C)C)N(C)C(=O)[C@H](COC(C)(C)C)NC(=O)[C@H]([C@@H](C)CC)N(C)C(=O)[C@H](CCc2ccccc2)NC(=O)[C@H](Cc2ccccc2)N(C)C(=O)[C@H]([C@@H](C)CC)NC(=O)[C@H](CC(C)C)N(C)C(=O)[C@H](CC(C)C)N(C)C(=O)CCN(C)C(=O)C[C@@H](C)N(C)C(=O)CN(C)C(=O)[C@H](CC(C)C)N(C)C(=O)[C@@H]2CCCN2C1=O [pd066] (cyclo([Abu]P[NMeL][Sar][NMedβ3hAla][NMeβAla][NMeL][NMeL]I[NMeF][hPhe][NMeI]S(tBu)[NMeL]))	38.9	36.4	0.33	0.33 10^-6 cm/sec
CC[C@@H]1NC(=O)[C@@H]2CCCN2C(=O)[C@H](CC(C)C)N(C)C(=O)[C@H](C(C)C)NC(=O)[C@H](CC(C)C)N(C)C(=O)[C@H]([C@@H](C)O)NC(=O)[C@H](Cc2ccccc2)N(C)C(=O)CN(C)C(=O)C[C@@H](C)N(C)C(=O)[C@H](C(C)C)NC(=O)[C@H](COC(C)(C)C)NC(=O)[C@H](C)N(C)C(=O)[C@H](CC(C)C)NC(=O)[C@H](Cc2ccccc2)N(C)C1=O [pd067] (cyclo([Abu][NMeF]L[NMeA]S(tBu)V[NMedβ3hAla][Sar][NMeF]T[NMeL]V[NMeL]P))	17	10.8	< 0.12	<0.12 10^-6 cm/sec
CC[C@@H]1NC(=O)[C@H](C(C)C)N(C)C(=O)[C@H](C)N(C)C(=O)[C@H](C(C)C)N(C)C(=O)[C@H](CC)N(C)C(=O)[C@H](Cc2ccccc2)N(C)C(=O)[C@H]([C@@H](C)O)N(C)C(=O)CNC(=O)[C@H](CC(C)C)N(C)C(=O)[C@H](C(C)C)NC(=O)[C@H](COC(C)(C)C)NC(=O)[C@H](CC(C)C)N(C)C(=O)[C@@H](C(C)C)NC(=O)C[C@@H](C)N(C)C1=O [pd068] (cyclo([Abu][NMedβ3hAla][dV][NMeL]S(tBu)V[NMeL]G[NMeT][NMeF][NMeAbu][NMeV][NMeA][NMeV]))	15.7	12.5	0.27	0.27 10^-6 cm/sec
CC[C@@H]1NC(=O)[C@H]([C@@H](C)O)NC(=O)[C@H](Cc2ccccc2)N(C)C(=O)[C@H](CC(C)C)N(C)C(=O)[C@H](C(C)C)NC(=O)[C@H]([C@@H](C)CC)N(C)C(=O)[C@H]([C@@H](C)CC)NC(=O)[C@H](CC(C)C)N(C)C(=O)[C@H](C)N(C)C(=O)[C@H](C)NC(=O)C[C@@H](C)N(C)C(=O)[C@H](CC(C)C)N(C)C(=O)[C@H](C)N(C)C(=O)CN(C)C1=O [pd069] (cyclo(A[NMeA][NMeL]I[NMeI]V[NMeL][NMeF]T[Abu][Sar][NMeA][NMeL][NMedβ3hAla]))	16.5	20.5	< 0.08	<0.08 10^-6 cm/sec
CC[C@@H]1NC(=O)[C@H](Cc2ccccc2)N(C)C(=O)[C@@H]2CCCN2C(=O)[C@H](CC(C)C)N(C)C(=O)[C@H](CC)NC(=O)[C@H](C(C)C)NC(=O)[C@H](CC(C)C)N(C)C(=O)[C@H]([C@@H](C)O)NC(=O)[C@H](Cc2ccccc2)N(C)C(=O)CN(C)C(=O)C[C@@H](C)N(C)C(=O)[C@H](C(C)C)NC(=O)[C@H](CC)N(C)C(=O)[C@H](C)N(C)C1=O [pd070] (cyclo([Abu][NMeA][NMeAbu]V[NMedβ3hAla][Sar][NMeF]T[NMeL]V[Abu][NMeL]P[NMeF]))	15	14.6	0.03	0.03 10^-6 cm/sec
CC[C@H]1C(=O)N(C)[C@H](C)CC(=O)N[C@H](C(C)C)C(=O)N(C)[C@@H](CC(C)C)C(=O)N(C)[C@@H](C(C)C)C(=O)N[C@@H](C)C(=O)N(C)[C@@H](CC(C)C)C(=O)NCC(=O)N(C)[C@@H]([C@@H](C)O)C(=O)N(C)[C@@H](Cc2ccccc2)C(=O)N(C)[C@@H](CC)C(=O)N[C@@H](COC(C)(C)C)C(=O)N(C)[C@@H](C)C(=O)N(C)[C@@H](C(C)C)C(=O)N1C [pd071] (cyclo(A[NMeL]G[NMeT][NMeF][NMeAbu]S(tBu)[NMeA][NMeV][NMeAbu][NMedβ3hAla][dV][NMeL][NMeV]))	13.3	6.2	0.22	0.22 10^-6 cm/sec
CC[C@@H]1NC(=O)[C@H]([C@@H](C)O)NC(=O)[C@H](Cc2ccccc2)N(C)C(=O)[C@H](CC(C)C)N(C)C(=O)[C@H](C(C)C)N(C)C(=O)[C@H](CC)N(C)C(=O)[C@H]([C@@H](C)CC)NC(=O)[C@H](CC(C)C)N(C)C(=O)[C@H](C)N(C)C(=O)[C@H](C)NC(=O)C[C@@H](C)N(C)C(=O)[C@H](CC(C)C)N(C)C(=O)[C@H](C)N(C)C(=O)CN(C)C1=O [pd072] (cyclo(A[NMeA][NMeL]I[NMeAbu][NMeV][NMeL][NMeF]T[Abu][Sar][NMeA][NMeL][NMedβ3hAla]))	22.4	16.6	< 0.13	<0.13 10^-6 cm/sec
CC[C@H]1C(=O)N(C)[C@@H](CC(C)C)C(=O)N2CCC[C@H]2C(=O)N(C)[C@@H](CC)C(=O)N[C@@H](CCc2ccccc2)C(=O)N(C)[C@@H](C)C(=O)N(C)[C@@H](CC)C(=O)N[C@@H](C(C)C)C(=O)N(C)[C@H](C)CC(=O)N(C)CC(=O)N(C)[C@@H](Cc2ccccc2)C(=O)N[C@@H]([C@@H](C)O)C(=O)N(C)[C@@H](CC(C)C)C(=O)N[C@@H](C(C)C)C(=O)N1C [pd073] (cyclo([NMeA][NMeAbu]V[NMedβ3hAla][Sar][NMeF]T[NMeL]V[NMeAbu][NMeL]P[NMeAbu][hPhe]))	24.3	2.9	< 0.12	<0.12 10^-6 cm/sec
CC[C@@H]1NC(=O)[C@H](CC(C)C)N(C)C(=O)[C@H](CC(C)C)NC(=O)[C@H](C)N(C)C(=O)C[C@@H](C(=O)N2CCCCC2)N(C)C(=O)[C@H](C)N(C)C(=O)[C@H](CC(C)C)NC(=O)[C@H](CC(C)C)N(C)C(=O)CNC(=O)[C@H]([C@@H](C)CC)N(C)C(=O)[C@H](Cc2ccccc2)N(C)C(=O)[C@H](C)NC(=O)[C@H]([C@@H](C)CC)NC(=O)[C@H](Cc2ccccc2)N(C)C1=O [pd075] ([NMeA]L[NMeL][Abu][NMeF]IA[NMeF][NMeI]G[NMeL]L[NMeA][NMeD]-Piperidide; lactam N-14)	35.6	42.8	0.17	0.17 10^-6 cm/sec
CCCCN1CC(=O)N(C)[C@@H](Cc2ccccc2)C(=O)N[C@@H](COC(C)(C)C)C(=O)N(C)[C@@H](CC(C)C)C(=O)NCCC(=O)N(C)[C@@H](C)C(=O)N[C@@H]([C@@H](C)CC)C(=O)N(C)[C@@H](CC(C)C)C(=O)N[C@@H](C(C)C)C(=O)N(C)[C@H](C(=O)N2CCCCC2)CC(=O)N(C)CCC(=O)N(C)[C@@H](CC(C)C)C(=O)N[C@@H]([C@@H](C)CC)C(=O)N(C)[C@@H](Cc2ccccc2)C1=O [pd077] ([NMeβAla][NMeL]I[NMeF][NBuGly][NMeF]S(tBu)[NMeL][βAla][NMeA]I[NMeL]V[NMeD]-Piperidide; lactam N-14)	40	40.3	0.32	0.32 10^-6 cm/sec
